From PubChem BioAssay (NCI)
Values joined by “and” are separate entries in the source; they are usually repeats but may differ in a detail not shown here. Equal values may be shown once.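 48-hour exposure; five concentrations; linearly interpolated endpoints. At the GI50, growth is halved. TGI is the concentration that stops growth completely.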

How the values were obtained:
Test in all cases: NCI tumour cell line growth inhibition, 48 h
UACC-62 melanoma = tested on: UACC-62 melanoma
SK-MEL-2 melanoma = tested on: SK-MEL-2 melanoma
SW-620 colon = tested on: SW-620 colon
HCT-15 colon = tested on: HCT-15 colon
CCRF-CEM leukemia = tested on: CCRF-CEM leukemia
DLD-1 colon = tested on: DLD-1 colon
RXF-631 renal = tested on: RXF-631 renal
K-562 leukemia = tested on: K-562 leukemia
SK-OV-3 ovarian = tested on: SK-OV-3 ovarian
A549 NSCLC = tested on: A549 NSCLC
786-0 renal = tested on: 786-0 renal
SR leukemia = tested on: SR leukemia
LOX IMVI melanoma = tested on: LOX IMVI melanoma
HT29 colon = tested on: HT29 colon
OVCAR-4 ovarian = tested on: OVCAR-4 ovarian
SK-MEL-5 melanoma = tested on: SK-MEL-5 melanoma
UACC-257 melanoma = tested on: UACC-257 melanoma
HL-60(TB) leukemia = tested on: HL-60(TB) leukemia
IGROV1 ovarian = tested on: IGROV1 ovarian
U251 CNS = tested on: U251 CNS
SF-539 CNS = tested on: SF-539 CNS
MOLT-4 leukemia = tested on: MOLT-4 leukemia
M19-MEL melanoma = tested on: M19-MEL melanoma
SN12C renal = tested on: SN12C renal
DMS 273 small cell lung = tested on: DMS 273 small cell lung
HOP-92 NSCLC = tested on: HOP-92 NSCLC
OVCAR-5 ovarian = tested on: OVCAR-5 ovarian
SNB-19 CNS = tested on: SNB-19 CNS
NCI-H460 lung = tested on: NCI-H460 lung
NCI-H522 lung = tested on: NCI-H522 lung
HOP-62 NSCLC = tested on: HOP-62 NSCLC
SNB-75 CNS = tested on: SNB-75 CNS
RPMI-8226 leukemia = tested on: RPMI-8226 leukemia
SK-MEL-28 melanoma = tested on: SK-MEL-28 melanoma
EKVX NSCLC = tested on: EKVX NSCLC
HCT-116 colon = tested on: HCT-116 colon
KM12 colon = tested on: KM12 colon
SF-295 CNS = tested on: SF-295 CNS
UO-31 renal = tested on: UO-31 renal
DMS 114 small cell lung = tested on: DMS 114 small cell lung
ACHN renal = tested on: ACHN renal
MALME-3M melanoma = tested on: MALME-3M melanoma
OVCAR-8 ovarian = tested on: OVCAR-8 ovarian
SF-268 CNS = tested on: SF-268 CNS
HCC-2998 colon = tested on: HCC-2998 colon
TK-10 renal = tested on: TK-10 renal

For COc1cc(C(=O)N[C@H]2CCc3cc(OC)c(OC)c(OC)c3-c3ccc(SC)c(=O)cc32)cc(OC)c1OC, which TGI (UACC-62 melanoma) is on record?
Its TGI is 25 µM and > 100 µM.

And the GI50 (SK-MEL-2 melanoma)?
Its GI50 is 0.02 µM.

What about the TGI (SW-620 colon) of the same compound?
The TGI was 25 µM and > 100 µM.

What about the TGI (HCT-15 colon) of the same compound?
The TGI was 25 µM.

And the TGI (CCRF-CEM leukemia)?
Its TGI is 25 µM and > 100 µM.

What about the GI50 (DLD-1 colon) of the same compound?
The GI50 was 0.0234 µM.

And the TGI (DLD-1 colon)?
Its TGI is 25 µM and > 100 µM.

And the TGI (RXF-631 renal)?
The TGI was > 100 µM.

What about the TGI (K-562 leukemia) of the same compound?
The TGI was 25 µM and > 100 µM.

What about the TGI (SK-OV-3 ovarian) of the same compound?
Its TGI is 0.0203 µM.

What about the GI50 (A549 NSCLC) of the same compound?
The GI50 was 0.017 µM.

And the TGI (A549 NSCLC)?
Its TGI is 25 µM and > 100 µM.

And the TGI (786-0 renal)?
Its TGI is 25 µM and 16.3 µM.

What about the TGI (SR leukemia) of the same compound?
Its TGI is 25 µM and > 100 µM.

What about the TGI (LOX IMVI melanoma) of the same compound?
The TGI was 25 µM and 19.2 µM.

And the TGI (HT29 colon)?
Its TGI is > 100 µM.

What about the GI50 (OVCAR-4 ovarian) of the same compound?
The GI50 was 0.0285 µM.

And the TGI (OVCAR-4 ovarian)?
Its TGI is 25 µM and > 100 µM.

And the TGI (SK-MEL-5 melanoma)?
The TGI was 0.324 µM and 0.0331 µM.

What about the TGI (UACC-257 melanoma) of the same compound?
The TGI was 19.1 µM and > 100 µM.

And the TGI (HL-60(TB) leukemia)?
Its TGI is 0.578 µM.

And the TGI (IGROV1 ovarian)?
Its TGI is 25 µM and 62.7 µM.

What about the TGI (U251 CNS) of the same compound?
The TGI was 0.0812 µM.

And the TGI (SF-539 CNS)?
The TGI was 0.0145 µM.

What about the GI50 (MOLT-4 leukemia) of the same compound?
Its GI50 is 0.0133 µM.

What about the TGI (MOLT-4 leukemia) of the same compound?
Its TGI is 25 µM and > 100 µM.

What about the GI50 (M19-MEL melanoma) of the same compound?
The GI50 was 0.0156 µM.

What about the TGI (M19-MEL melanoma) of the same compound?
The TGI was 25 µM and > 100 µM.

What about the GI50 (SN12C renal) of the same compound?
The GI50 was 0.0145 µM.

And the TGI (SN12C renal)?
The TGI was 25 µM and 41.2 µM.

What about the TGI (DMS 273 small cell lung) of the same compound?
Its TGI is > 100 µM.

And the TGI (HOP-92 NSCLC)?
The TGI was 25 µM.

What about the TGI (OVCAR-5 ovarian) of the same compound?
The TGI was 25 µM.

What about the TGI (SNB-19 CNS) of the same compound?
Its TGI is > 100 µM.

And the TGI (NCI-H460 lung)?
The TGI was 0.0137 µM and 0.0808 µM.

And the TGI (NCI-H522 lung)?
The TGI was 0.00974 µM.

What about the GI50 (HOP-62 NSCLC) of the same compound?
The GI50 was 0.47 µM.

What about the TGI (HOP-62 NSCLC) of the same compound?
The TGI was 25 µM and > 100 µM.

And the TGI (SNB-75 CNS)?
Its TGI is 48.6 µM.

And the TGI (RPMI-8226 leukemia)?
Its TGI is 25 µM and > 100 µM.

What about the TGI (SK-MEL-28 melanoma) of the same compound?
Its TGI is > 100 µM.

And the TGI (EKVX NSCLC)?
Its TGI is 25 µM.

And the TGI (HCT-116 colon)?
The TGI was 3.02 µM and 17 µM.

What about the TGI (KM12 colon) of the same compound?
Its TGI is 16.4 µM.

What about the TGI (SF-295 CNS) of the same compound?
Its TGI is 0.0684 µM and 0.0328 µM.

And the GI50 (UO-31 renal)?
Its GI50 is 0.266 µM.

And the TGI (UO-31 renal)?
Its TGI is 25 µM and 22.2 µM.

What about the TGI (DMS 114 small cell lung) of the same compound?
The TGI was 0.144 µM.

And the GI50 (ACHN renal)?
The GI50 was 0.0804 µM.

What about the TGI (ACHN renal) of the same compound?
Its TGI is 25 µM and > 100 µM.

And the GI50 (MALME-3M melanoma)?
The GI50 was 0.0224 µM.

What about the TGI (MALME-3M melanoma) of the same compound?
Its TGI is 17.5 µM and 14.9 µM.

And the TGI (OVCAR-8 ovarian)?
Its TGI is 0.0478 µM.

What about the TGI (SF-268 CNS) of the same compound?
Its TGI is 25 µM and 49 µM.

What about the TGI (HCC-2998 colon) of the same compound?
The TGI was 0.159 µM.

And the GI50 (TK-10 renal)?
The GI50 was 16.1 µM.

What about the TGI (TK-10 renal) of the same compound?
The TGI was 25 µM and > 100 µM.
